Test results as given in patent publication US20190062305A1, “PYRIDYL OR PYRAZINYL COMPOUNDS CARRYING A METHYL-BOUND ALPHA-AMINO ACID AMIDE GROUP” (ABBVIE DEUTSCHLAND GMBH & CO. KG, priority 2015, published 2019).
Structures can show the parent of a compound that is named as a salt.

How the values were obtained:
[1] = target: T1, 5-HT2C receptor (Homo sapiens, UniProt P28335); test: Human 5-HT2C functional assay (beta-arrestin2 recruitment, U2OS_HTR2C_β-Arrestin cells); assay type: cell-based; details: for EC50: beta-arrestin2 recruitment, U2OS_HTR2C_β-Arrestin cells, 1.5 h incubation, read-out: EC50 5-HT2C (potency in functional assay); for Emax: relative efficacy vs response to 10 μM 5-HT or maximal 5-HT effect (100%)
T1 construct: host or cells: U2OS
T1 sequence (P28335 33-458): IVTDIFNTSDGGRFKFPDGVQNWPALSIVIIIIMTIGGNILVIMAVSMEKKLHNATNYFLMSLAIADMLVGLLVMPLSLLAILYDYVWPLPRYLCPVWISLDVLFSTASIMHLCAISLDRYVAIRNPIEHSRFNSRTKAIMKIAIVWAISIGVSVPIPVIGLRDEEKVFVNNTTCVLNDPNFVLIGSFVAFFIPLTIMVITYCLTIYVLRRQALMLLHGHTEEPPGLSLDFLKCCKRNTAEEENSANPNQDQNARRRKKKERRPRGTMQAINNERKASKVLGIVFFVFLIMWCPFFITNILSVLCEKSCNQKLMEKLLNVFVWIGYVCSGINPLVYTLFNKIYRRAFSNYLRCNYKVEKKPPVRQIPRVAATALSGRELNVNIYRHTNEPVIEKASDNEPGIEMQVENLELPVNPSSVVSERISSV
T1 sequence (P32121 whole entry partner): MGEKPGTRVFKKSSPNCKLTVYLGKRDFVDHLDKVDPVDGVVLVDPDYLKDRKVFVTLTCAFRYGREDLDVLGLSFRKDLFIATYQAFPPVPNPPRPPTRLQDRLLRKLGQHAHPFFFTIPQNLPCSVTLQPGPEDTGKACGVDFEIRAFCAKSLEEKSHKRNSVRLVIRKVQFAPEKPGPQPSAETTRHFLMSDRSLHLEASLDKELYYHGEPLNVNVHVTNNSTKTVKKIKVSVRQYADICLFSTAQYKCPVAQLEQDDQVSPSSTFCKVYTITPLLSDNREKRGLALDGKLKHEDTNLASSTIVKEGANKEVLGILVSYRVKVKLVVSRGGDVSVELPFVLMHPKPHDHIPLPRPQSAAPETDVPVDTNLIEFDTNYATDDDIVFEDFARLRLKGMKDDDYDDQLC
Outline: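 U2OS cells expressing HTR2C with β-galactosidase complementation, switched to 1% serum medium 24 h post-plating, were treated next day with compound for 1.5 h; chemiluminescence read. Response expressed as % of 10 µM 5-HT or maximal 5-HT effect; EC50 from 4-parameter variable-slope fit.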

[2] = Metabolic stability in human liver microsomes, unbound intrinsic clearance (Cl int/fu mic); assay type: in vitro ADME; details: human, liver microsomes, pH 7.4, human liver microsomes 0.25 mg/mL, 0.5 μM compound, NADPH, read-out: Cl int, mic unb. (h) [l/h/kg] (unbound intrinsic clearance, human)
Outline: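 Compound (0.5 µM) was incubated with human liver microsomes (0.25 mg/mL) in pH 7.4 phosphate buffer at 37 °C with 1.0 mM NADPH, sampling from 0–30 min. Depletion was followed by LC-MS/MS, and CLint was derived from first-order t1/2 per mg protein. Microsomal unbound fraction came from 4 h equilibrium dialysis at 37 °C, giving CLint/fu mic.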

COc1nc(N2CCCC(F)C2)c(F)cc1CNC(=O)[C@@H]1CCCN1 (stereo partly drawn) [Example 161, (2S)—N-[[5-Fluoro-6-(3-fluoro-1-piperidyl)-2-methoxy-3-pyridyl]methyl]-pyrrolidine-2-carboxamide; 2,2,2-trifluoroacetic Acid]
EC50 [1]: 20 to 200 nM | Emax [1]: 50 to 70% | CLint scaled at 0.5 μM [2]: < 5 L/h/kg

COc1nc(N2CCC(F)C2)c(F)cc1CNC(=O)[C@@H]1CCCN1 (stereo partly drawn) [Example 162, (2S)—N-[[5-Fluoro-6-(3-Fluoropyrrolidin-1-yl)-2-methoxy-3-pyridyl]methyl]-pyrrolidine-2-carboxamide; 2,2,2-trifluoroacetic Acid]
EC50 [1]: 20 to 200 nM | Emax [1]: 50 to 70% | CLint scaled at 0.5 μM [2]: 5 to 50 L/h/kg

COc1nc(N2CCC(C(F)(F)F)C2)c(F)cc1CNC(=O)[C@@H]1CCCN1 (stereo partly drawn) [Example 163, (2S)—N-[[5-Fluoro-2-methoxy-6-[3-(trifluoromethyl)pyrrolidin-1-yl]-3-pyridyl]methyl]pyrrolidine-2-carboxamide; 2,2,2-trifluoroacetic Acid]
EC50 [1]: < 20 nM | Emax [1]: > 70% | CLint scaled at 0.5 μM [2]: 5 to 50 L/h/kg

COc1nc(N2CCC(F)(F)C2)c(F)cc1CNC(=O)[C@@H]1CCCN1 [Example 164, (2S)—N-[[6-(3,3-Difluoropyrrolidin-1-yl)-5-fluoro-2-methoxy-3-pyridyl]methyl]pyrrolidine-2-carboxamide; 2,2,2-trifluoroacetic Acid]
EC50 [1]: 20 to 200 nM | Emax [1]: > 70% | CLint scaled at 0.5 μM [2]: < 5 L/h/kg

COc1nc(N2CCC(F)(F)CC2)c(F)cc1CN(C)C(=O)[C@@H]1CCCN1 [Example 165, (2S)—N-[[6-(4,4-Difluoro-1-piperidyl)-5-fluoro-2-methoxy-3-pyridyl]methyl]-N-methyl-pyrrolidine-2-carboxamide; 2,2,2-trifluoroacetic Acid]
EC50 [1]: 20 to 200 nM | Emax [1]: 50 to 70% | CLint scaled at 0.5 μM [2]: < 5 L/h/kg

COc1nc(NC2CCC(F)(F)CC2)c(F)cc1CN(C)C(=O)[C@@H]1CCCN1 [Example 166, (2S)—N-[[6-[(4,4-Difluorocyclohexyl)amino]-5-fluoro-2-methoxy-3-pyridyl]methyl]-N-methyl-pyrrolidine-2-carboxamide; 2,2,2-trifluoroacetic Acid]
EC50 [1]: 20 to 200 nM | Emax [1]: 50 to 70% | CLint scaled at 0.5 μM [2]: < 5 L/h/kg

COc1nc(C2=CCC(OC)CC2)c(F)cc1CNC(=O)[C@@H]1CCCN1 (stereo partly drawn) [Example 167, (2S)—N-[[5-Fluoro-2-methoxy-6-(4-methoxycyclohexen-1-yl)-3-pyridyl]methyl]-pyrrolidine-2-carboxamide]
EC50 [1]: 200 to 1000 nM | Emax [1]: > 70% | CLint scaled at 0.5 μM [2]: < 5 L/h/kg

COCCCc1nc(OC)c(CNC(=O)[C@@H]2CCCN2)cc1F [Example 168, (2S)—N-[[5-Fluoro-2-methoxy-6-(3-methoxypropyl)-3-pyridyl]methyl]pyrrolidine-2-carboxamide]
EC50 [1]: 200 to 1000 nM | Emax [1]: > 70% | CLint scaled at 0.5 μM [2]: < 5 L/h/kg

COc1nc(NCC2CCC(F)(F)CC2)c(F)cc1CNC(=O)[C@@H]1CCCN1 [Example 169, (2S)—N-[[6-[(4,4-Difluorocyclohexyl)methylamino]-5-fluoro-2-methoxy-3-pyridyl]methyl]pyrrolidine-2-carboxamide; 2,2,2-trifluoroacetic Acid]
EC50 [1]: < 20 nM | Emax [1]: > 70% | CLint scaled at 0.5 μM [2]: < 5 L/h/kg

COc1nc(NCc2ccccc2)c(F)cc1CNC(=O)[C@@H]1CCCN1 [Example 170, (2S)—N-[[6-(Benzylamino)-5-fluoro-2-methoxy-3-pyridyl]methyl]pyrrolidine-2-carboxamide; 2,2,2-trifluoroacetic Acid]
EC50 [1]: 20 to 200 nM | Emax [1]: > 70% | CLint scaled at 0.5 μM [2]: < 5 L/h/kg

CCCN(Cc1ccccc1)c1nc(OC)c(CNC(=O)[C@@H]2CCCN2)cc1F [Example 171, (2S)—N-[[6-[Benzyl(propyl)amino]-5-fluoro-2-methoxy-3-pyridyl]methyl]-pyrrolidine-2-carboxamide Hydrochloride]
EC50 [1]: 200 to 1000 nM | Emax [1]: > 70% | CLint scaled at 0.5 μM [2]: 5 to 50 L/h/kg

COc1nc(C2CCC(OC)CC2)c(F)cc1CNC(=O)[C@@H]1CCCN1 (stereo partly drawn) [Example 172, (2S)—N-[[5-Fluoro-2-methoxy-6-(4-methoxycyclohexyl)-3-pyridyl]methyl]-pyrrolidine-2-carboxamide]
EC50 [1]: 20 to 200 nM | Emax [1]: > 70% | CLint scaled at 0.5 μM [2]: < 5 L/h/kg

COc1nc(N2CCOC(c3ccccc3)C2)c(F)cc1CNC(=O)[C@@H]1CCCN1 (stereo partly drawn) [Example 173, (2S)—N-[[5-Fluoro-2-methoxy-6-(2-phenylmorpholin-4-yl)-3-pyridyl]methyl]-pyrrolidine-2-carboxamide; 2,2,2-trifluoroacetic Acid]
EC50 [1]: 200 to 1000 nM | Emax [1]: 50 to 70% | CLint scaled at 0.5 μM [2]: 5 to 50 L/h/kg

COc1nc(N2CC(C)OC(C)C2)c(F)cc1CNC(=O)[C@@H]1CCCN1 (stereo partly drawn) [Example 174, (2S)—N-[[6-(2,6-Dimethylmorpholin-4-yl)-5-fluoro-2-methoxy-3-pyridyl]methyl]-pyrrolidine-2-carboxamide; 2,2,2-trifluoroacetic Acid]
EC50 [1]: 200 to 1000 nM | Emax [1]: 30 to 50% | CLint scaled at 0.5 μM [2]: < 5 L/h/kg

COc1nc(N2CC(Oc3ccccc3)C2)c(F)cc1CNC(=O)[C@@H]1CCCN1 [Example 175, (2S)—N-[[5-Fluoro-2-methoxy-6-(3-phenoxyazetidin-1-yl)-3-pyridyl]methyl]-pyrrolidine-2-carboxamide; 2,2,2-trifluoroacetic Acid]
EC50 [1]: 20 to 200 nM | Emax [1]: 50 to 70% | CLint scaled at 0.5 μM [2]: 5 to 50 L/h/kg

COc1nc(N2CC(C)(Oc3ccccc3)C2)c(F)cc1CNC(=O)[C@@H]1CCCN1 [Example 176, (2S)—N-[[5-Fluoro-2-methoxy-6-(3-methyl-3-phenoxy-azetidin-1-yl)-3-pyridyl]methyl]pyrrolidine-2-carboxamide; 2,2,2-trifluoroacetic Acid]
EC50 [1]: < 20 nM | Emax [1]: > 70% | CLint scaled at 0.5 μM [2]: 5 to 50 L/h/kg

COc1nc(NCc2ccc(F)cc2)c(F)cc1CNC(=O)[C@@H]1CCCN1 [Example 177, (2S)—N-[[5-Fluoro-6-[(4-fluorophenyl)methylamino]-2-methoxy-3-pyridyl]methyl]-pyrrolidine-2-carboxamide; 2,2,2-trifluoroacetic Acid]
EC50 [1]: 20 to 200 nM | Emax [1]: > 70% | CLint scaled at 0.5 μM [2]: < 5 L/h/kg

COc1nc(Nc2ccc(F)cc2)c(F)cc1CNC(=O)[C@@H]1CCCN1 [Example 178, (2S)—N-[[5-Fluoro-6-(4-fluoroanilino)-2-methoxy-3-pyridyl]methyl]pyrrolidine-2-carboxamide; 2,2,2-trifluoroacetic Acid]
EC50 [1]: 200 to 1000 nM | CLint scaled at 0.5 μM [2]: < 5 L/h/kg

COc1nc(N(C)Cc2ccccc2)c(F)cc1CNC(=O)[C@@H]1CCCN1 [Example 179, (2S)—N-[[6-[N-Benzyl-N-methyl-amino]-5-fluoro-2-methoxy-3-pyridyl]methyl]-pyrrolidine-2-carboxamide; 2,2,2-trifluoroacetic Acid]
EC50 [1]: 200 to 1000 nM | Emax [1]: 50 to 70% | CLint scaled at 0.5 μM [2]: 5 to 50 L/h/kg

COc1nc(N2CCC(C3CCC(C(F)(F)F)CC3)CC2)c(F)cc1CNC(=O)[C@@H]1CCCN1 (stereo partly drawn) [Example 180, (2S)—N-[[5-Fluoro-2-methoxy-6-[4-[4-(trifluoromethyl)cyclohexyl]-1-piperidyl]-3-pyridyl]methyl]pyrrolidine-2-carboxamide; 2,2,2-trifluoroacetic Acid]
EC50 [1]: 200 to 1000 nM | Emax [1]: > 70% | CLint scaled at 0.5 μM [2]: 50 to 500 L/h/kg
